One data set concerns renal cell cancer. In words: Treatment of a human patient suffering from renal cell cancer with PKI166. As to conditions: stable disease = less than 50% decrease or less than 25% increase in measurable or evaluable disease. In kind it is in vivo. As for the experimental part: A human patient suffering from renal cell cancer is treated for a period of 16 weeks in 4 cycles consisting of administration of 600 mg of PKI166 daily for two weeks followed by 2 weeks without administering the drug. […] A human patient suffering from renal cell cancer is treated for a period of 16 weeks with 400 mg of PKI166 on Monday, Wednesday and Friday of each week.

The subject of a further data set is NSCLC. In words: Treatment of a human patient suffering from NSCLC with PKI166. The class given is in vivo. The note with it: 8 weeks, 450 mg/day except on day 2, 16 and 30, partial response = greater than or equal to 50% reduction in measurable or evaluable disease without progression. As for the experimental part:
A human patient suffering from NSCLC is treated for a period of 8 weeks with 450 mg/day of PKI166 except on day 2, 16 and 30 on which days no drug is applied.

A word on the melting point: it is the temperature, or range, at which the solid turns liquid.

SMILES strings stand for the structures.

With `C[C@@H](Nc1ncnc2[nH]c(-c3ccc(CNC4CCOCC4)cc3)cc12)c1ccccc1` [Example 10, ((R)-1-Phenyl-ethyl)-(6-{4-[(tetrahydro-pyran-4-ylamino)-methyl]-phenyl}-7H-pyrrolo[2,3-d]pyrimidin-4-yl)-amine], the melting point was 253 to 255 °C.

In the case of `C[C@@H](Nc1ncnc2[nH]c(-c3ccc(CN4CCCC4)cc3)cc12)c1ccccc1` [Example 4, ((R)-1-Phenyl-ethyl)-[6-(4-pyrrolidin-1-ylmethyl-phenyl)-7H-pyrrolo[2,3-d]pyrimidin-4-yl]-amine], the melting point fell in the range of 254 to 256 °C.

Consider `C[C@@H](Nc1ncnc2[nH]c(-c3ccc(CN4CCN(C)CC4)cc3)cc12)c1ccccc1` [Example 1, {6-[4-(4-Methyl-piperazin-1-ylmethyl)-phenyl]-7H-pyrrolo[2,3-d]pyrimidin-4-yl}-((R)-1-phenyl-ethyl)-amine], for which the melting point is 248 to 250 °C.

As for `CC1CN(Cc2ccc(-c3cc4c(N[C@H](C)c5ccccc5)ncnc4[nH]3)cc2)CC(C)N1` (stereo partly drawn) [Example 8, {6-[4-(3,5-Dimethyl-piperazin-1-ylmethyl)-phenyl]-7H-pyrrolo[2,3-d]pyrimidin-4-yl}-((R)-1-phenyl-ethyl)-amine], the melting point lay in the range of 208 to 210 °C.

Regarding `C[C@@H](Nc1ncnc2[nH]c(-c3ccc(CN(C)C)cc3)cc12)c1ccccc1` [Example 5, [6-(4-Dimethylaminomethyl-phenyl)-7H-pyrrolo[2,3-d]pyrimidin-4-yl]-((R)-1-phenyl-ethyl)-amine], the melting point fell in the range of 241 to 243 °C.

`CCN(CC)Cc1ccc(-c2cc3c(N[C@H](C)c4ccccc4)ncnc3[nH]2)cc1` [Example 2, [6-(4-Diethylaminomethyl-phenyl)-7H-pyrrolo[2,3-d]pyrimidin-4-yl]-((R)-1-phenyl-ethyl)-amine] had a melting point of 246 to 248 °C.

`C[C@@H](Nc1ncnc2[nH]c(-c3ccc(CN4CCOCC4)cc3)cc12)c1ccccc1` [Example 7, [6-(4-Morpholin-4-ylmethyl-phenyl)-7H-pyrrolo[2,3-d]pyrimidin-4-yl]-((R)-1-phenyl-ethyl)-amine] yielded a melting point of 263 to 265 °C.

Consider `C[C@@H](Nc1ncnc2[nH]c(-c3ccc(CNCCN4CCOCC4)cc3)cc12)c1ccccc1` [Example 9, (6-{4-[(2-Morpholin-4-yl-ethylamino)-methyl]-phenyl}-7H-pyrrolo[2,3-d]pyrimidin-4-yl)-((R)-1-phenyl-ethyl)-amine], for which the melting point fell in the range of 222 to 224 °C.

Regarding `C[C@@H](Nc1ncnc2[nH]c(-c3ccc(O)cc3)cc12)c1ccccc1` [PKI166, (R)-6-(4-hydroxy-phenyl)-4-[(1-phenyl-ethyl)-amino]-7H-pyrrolo[2,3-d]pyrimidine], the “disease response observed during treatment” value in the data set on renal cell cancer (16 weeks in 4 cycles of 600 mg daily for two weeks followed by 2 weeks without drug) is listed as “stable disease”; in the data set on renal cell cancer (16 weeks, 400 mg on Monday, Wednesday and Friday of each week), “stable disease”. Further, the “disease response observed after treatment” value with NSCLC is reported as “partial response”.

On to `C[C@@H](Nc1ncnc2[nH]c(-c3ccc(CN4CCCCC4)cc3)cc12)c1ccccc1` [Example 6, ((R)-1-Phenyl-ethyl)-[6-(4-piperidin-1-ylmethyl-phenyl)-7H-pyrrolo[2,3-d]pyrimidin-4-yl]-amine], for which the melting point was in the range of 246 to 248 °C.

For the origin of these results see patent US20050038048A1, “Use of 7h-pyrrollo{2,3-d}pyrimidine derivatives in the treatment of solid tumor diseases” (priority 2001, published 2005).
